Values joined by “and” are separate entries in the source; they are usually repeats but may differ in a detail not shown here. Equal values may be shown once. Where a name gives a salt, the structure may show the parent alone. Read-outs that look alike come from different tables or passages of the source.
Key:
[1] = biological target: M. tuberculosis DXR (MtDXR) (Mycobacterium tuberculosis, UniProt P9WNS1); format: biochemical; conditions: for Ki: read-out: MtDXR Ki; for times less active against MtDXR than 1 and 2: compared with parent compounds 1 and 2
E. coli DXR (EcDXR) = E. coli DXR (EcDXR) (Escherichia coli, UniProt P45568); assay: biochemical; format: biochemical
P. falciparum = conditions: read-out: EC50 against P. falciparum; ref 8j; cited from earlier work
DXR = conditions: read-out: DXR IC50; ref 9b; cited from earlier work
EcDXR = conditions: read-out: Km of substrate for EcDXR; cited from earlier work
MtDXR [2] = conditions: read-out: Km of substrate for MtDXR; ref 2d; cited from earlier work
[3] = background statement, no reference given; cited from earlier work
MtDXR [4] = conditions: read-out: MtDXR IC50; using […] of Mn2+; cited from earlier work

M. tuberculosis DXR (MtDXR), sequence (P9WNS1 whole entry, looked up): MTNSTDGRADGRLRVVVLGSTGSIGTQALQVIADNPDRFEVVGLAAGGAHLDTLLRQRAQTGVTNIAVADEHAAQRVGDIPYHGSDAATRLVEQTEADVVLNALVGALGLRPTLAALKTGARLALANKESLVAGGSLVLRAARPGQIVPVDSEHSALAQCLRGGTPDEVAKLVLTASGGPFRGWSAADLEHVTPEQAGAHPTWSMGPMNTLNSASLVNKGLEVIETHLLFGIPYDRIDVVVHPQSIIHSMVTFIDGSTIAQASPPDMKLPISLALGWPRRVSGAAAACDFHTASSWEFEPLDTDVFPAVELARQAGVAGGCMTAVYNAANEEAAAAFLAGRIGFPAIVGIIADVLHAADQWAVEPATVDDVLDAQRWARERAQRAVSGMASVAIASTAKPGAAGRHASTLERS
E. coli DXR (EcDXR), sequence (P45568 whole entry): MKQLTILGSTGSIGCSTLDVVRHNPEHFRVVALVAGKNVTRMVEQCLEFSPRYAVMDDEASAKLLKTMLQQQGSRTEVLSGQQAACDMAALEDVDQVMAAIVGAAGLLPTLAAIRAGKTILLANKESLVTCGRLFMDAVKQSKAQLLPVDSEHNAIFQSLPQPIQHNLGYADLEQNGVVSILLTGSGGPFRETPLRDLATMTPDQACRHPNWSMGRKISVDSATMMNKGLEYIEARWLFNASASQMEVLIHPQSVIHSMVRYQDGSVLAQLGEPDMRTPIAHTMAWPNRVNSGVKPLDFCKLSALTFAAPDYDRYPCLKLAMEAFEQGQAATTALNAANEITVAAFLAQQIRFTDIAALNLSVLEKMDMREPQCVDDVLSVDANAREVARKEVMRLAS

| SMILES | Ki [1] [µM] | Ki (E. coli DXR (EcDXR)) [µM] | Ki (E. coli DXR (EcDXR); read-out: EcDXR Ki) [µM] | further results |
| --- | --- | --- | --- | --- |
| O=P(O)(O)CCc1ccccc1 [Compound 20, 2-Phenylethylphosphonic acid disodium salt] | > 100 | > 49.7 | > 100 |  |
| O=P(O)(O)Cc1cccc(O)c1O [Compound 23] | > 100 | > 49.7 | > 100 | inhibitory activity against EcDXR (in words) (E. coli DXR (EcDXR); up to 100 μM): no inhibitory activity |
| O=P(O)(O)Cc1ccc(-c2ccccc2)cn1 [Compound 9, 5-phenylpyridin-2-ylmethylphosphonic acid] |  |  |  | affinity loss to MtDXR compared to EcDXR ([1]; Ki MtDXR vs Ki EcDXR): 7 fold; times as potent as 8 against EcDXR (E. coli DXR (EcDXR)): 5 × |
| O=C(O)c1ccc(-c2ccccc2)cn1 [Compound 45, 5-Phenylpyridine-2-carboxylic acid] | > 100 | > 49.7 | > 100 |  |
| O=C(O)Cc1cccnc1 [Compound 41] | > 100 | > 49.7 | > 100 |  |
| O=P(O)(O)c1ccccc1 [Compound 18, Phenylphosphonic acid disodium salt] | > 100 | > 49.7 | > 100 |  |
| COc1cccc(-c2ccc(CP(=O)(O)O)nc2)c1 [Compound 37, 5-(3-Methoxyphenyl)pyridin-2-ylmethylphosphonic acid disodium salt] | > 100 |  |  |  |
| O=c1cccc(CCP(=O)(O)O)[nH]1 [Compound 25, 2-(Pyridin-2-one-6-yl)ethylphosphonic acid disodium salt] |  | > 49.7 |  | inhibitory activity against EcDXR (in words) (E. coli DXR (EcDXR); up to 100 μM): essentially inactive |
| O=P(O)(O)Cc1cccc(-c2ccccc2)n1 [Compound 33, (6-Phenylpyridin-2-yl)methylphosphonic acid disodium salt] | > 100 |  |  |  |
| O=c1ccc(CP(=O)(O)O)cn1O [Compound 24, 5-(1-Hydroxy-pyridin-2-one)methylphosphonic acid disodium salt] |  | > 49.7 |  | inhibitory activity against EcDXR (in words) (E. coli DXR (EcDXR); up to 100 μM): essentially inactive |
| O=P(O)(O)Cc1ccc(-c2ccc(Cl)cc2)cn1 [Compound 35, 5-(4-Chlorophenyl)pyridin-2-ylmethylphosphonic acid disodium salt] | > 100 |  |  |  |
| CC(=O)N(O)CCCP(=O)(O)O [Compound 2, FR900098, reference compound] |  |  |  | times weaker binding / less active against MtDXR than EcDXR [1]: ~ 6 × |
| O=C(NO)c1ccccn1 [Compound 43, N-hydroxy-pyridine-2-carboxamide] |  | > 49.7 |  |  |
| O=P(O)(O)CCCc1ccccn1 [Compound 13, 3-(Pyridin-2-yl)propylphosphonic acid disodium salt] | > 100 |  |  | times less potent than 8 against EcDXR (E. coli DXR (EcDXR); Ki ratio to compound 8): ~4 × |
| O=P(O)(O)Cc1ccccc1 [Compound 19, Benzylphosphonic acid disodium salt] | > 100 | > 49.7 | > 100 |  |
| O=C(Cc1ccccn1)NO [Compound 44, N-hydroxy-(pyridin-2-yl)acetamide] |  | > 49.7 |  |  |
| O=C(O)Cc1ccncc1 [Compound 42] | > 100 | > 49.7 | > 100 |  |
| O=P(O)(O)Cc1cnccn1 [Compound 16, Pyrazin-2-ylmethylphosphonic acid disodium salt] | > 100 |  |  |  |
| O=C(O)Cc1ccc(-c2ccccc2)cn1 [Compound 46, (5-Phenylpyridin-2-yl)acetic acid] |  | > 49.7 |  |  |

| SMILES | Ki [1] [µM] | Ki (E. coli DXR (EcDXR)) [µM] | Ki (E. coli DXR (EcDXR); read-out: EcDXR Ki) [µM] | further results |
| --- | --- | --- | --- | --- |
| CC(=O)N(O)CCC(c1ccc(Cl)c(Cl)c1)P(=O)(O)O (stereo not shown) [Compound 4, reference compound] |  |  |  | affinity loss to MtDXR compared to EcDXR ([1]; Ki MtDXR vs Ki EcDXR): 42 fold; times less active against MtDXR than 1 and 2 [1]: ~ 10 × and 10 ×; EC50 (P. falciparum): 0.25 µM |
| O=P(O)(O)c1ccccn1 [Compound 11, Pyridin-2-ylphosphonic acid disodium salt] | > 100 | > 49.7 | > 100 | inhibitory activity against EcDXR (in words) (E. coli DXR (EcDXR); up to 100 μM): essentially no activity |
| O=CN(O)CCC(c1ccc(Cl)c(Cl)c1)P(=O)(O)O (stereo not shown) [Compound 3, reference compound] |  |  |  | affinity loss to MtDXR compared to EcDXR ([1]; Ki MtDXR vs Ki EcDXR): 21 fold; times less active against MtDXR than 1 and 2 [1]: ~ 10 ×; EC50 (P. falciparum): 0.09 µM |
| O=P(O)(O)Cc1ccc(Cl)c(Cl)c1 [Compound 21] | > 100 | > 49.7 | > 100 | inhibitory activity against MtDXR (in words) [1]: essentially no activity; inhibitory activity against EcDXR (in words) (E. coli DXR (EcDXR); up to 100 μM): essentially no activity |
| O=P(O)(O)C(Nc1ccc(Cl)cn1)P(=O)(O)O [Compound 6, reference compound] | > 100 |  |  | times weaker binding / less active against MtDXR than EcDXR [1]: > 5 × |
| O=P(O)(O)Cc1ccc(OCc2ccccc2)cn1 [Compound 31, (5-Benzyloxypyridin-2-yl)methylphosphonic acid disodium salt] | > 100 | > 49.7 | > 100 | inhibitory activity against EcDXR (in words) (E. coli DXR (EcDXR)): inactive |
| O=C(O)Cc1ccccn1 [Compound 40] | > 100 | > 49.7 | > 100 |  |
| O=P(O)(O)Cc1ccc(O)cn1 [Compound 30, (5-Hydroxylpyridin-2-yl)methylphosphonic acid disodium salt] |  |  |  | times as potent as 8 against EcDXR (E. coli DXR (EcDXR); Ki ratio to compound 8): ~ 3 × |
| O=c1ccc(-c2ccccc2)cn1O [Compound 7, reference compound] |  |  |  | IC50 (DXR): 1.4 µM; times weaker binding / less active against MtDXR than EcDXR ([1]; Ki MtDXR vs Ki EcDXR): 31 × |
| O=P(O)(O)Cc1cccnc1 [Compound 14] | > 100 |  |  |  |
| Cc1ccc(-c2ccc(CP(=O)(O)O)nc2)cc1 [Compound 36, 5-(4-Methylphenyl)pyridin-2-ylmethylphosphonic acid disodium salt] | > 100 |  |  |  |
| CC(=O)[C@@H](O)[C@H](O)COP(=O)(O)O [DXP, 1-deoxy-D-xylulose-5-phosphate] |  |  |  | Km (EcDXR): 99 µM; Km (MtDXR [2]): 47.1 µM |
| O=CN(O)CCCP(=O)(O)O [Compound 1, Fosmidomycin] |  |  |  | times weaker binding / less active against MtDXR than EcDXR ([1]; Ki MtDXR vs Ki EcDXR): ~ 5 × and 5 ×; EC50 (P. falciparum): 1.1 µM; half-life in plasma [3]: ~ 1 h; oral availability [3]: poor oral availability; IC50 (MtDXR [4]): 0.08 µM |
| O=S(=O)(O)Cc1ccc(-c2ccccc2)cn1 [Compound 48, 5-Phenylpyridin-2-ylmethanesulfonic acid sodium salt] | > 100 | > 49.7 | > 100 |  |
| O=P(O)(O)CCc1ccccn1 [Compound 12, 2-(Pyridin-2-yl)ethylphosphonic acid disodium salt] | > 100 |  |  | times less potent than 8 against EcDXR (E. coli DXR (EcDXR); Ki ratio to compound 8): ~ 8 × |
| O=P(O)(O)CCc1ccccc1O [Compound 22, 2-(2-Hydroxyphenyl)ethylphosphonic acid disodium salt] | > 100 | > 49.7 | > 100 | inhibitory activity against EcDXR (in words) (E. coli DXR (EcDXR); up to 100 μM): no inhibitory activity |
| O=C(Cc1ccc(-c2ccccc2)cn1)NO [Compound 47, N-hydroxy-(5-phenylpyridin-2-yl)acetamide] |  | > 49.7 |  |  |
| O=C(O)c1ccccn1 [Compound 39] | > 100 | > 49.7 | > 100 |  |
| O=P(O)(O)Cc1cc(-c2ccc(F)cc2)ccn1 [Compound 28, 4-(4-Fluorophenyl)pyridin-2-ylmethylphosphonic acid disodium salt] | > 100 |  |  |  |
